Assay results published in ChEMBL document CHEMBL1150232, “Microspinosamide, a new HIV-inhibitory cyclic depsipeptide from the marine sponge Sidonops microspinosa” (J Nat Prod, 2001).
Converted amounts (≈) assume the structure as drawn.

Legend:
[1] = tested on: Human immunodeficiency virus 1; experiment: Antiviral activity against HIV1 infected in human CEM-SS cells assessed as inhibition of virus-induced cytopathic effect by XTT assay; assay type: functional, organism-based; conditions: Human immunodeficiency virus 1, CEM-SS
CEM-SS = experiment: Cytotoxicity against human CEM-SS cells; assay type: cell-based

CCC(C)(C)[C@H](NC(=O)[C@H](NC(=O)[C@@H]1CCCN1C(=O)C(NC(=O)[C@@H](C)NC=O)C(O)c1ccc(Br)cc1)C(C)(C)C)C(=O)N[C@H](Cc1c[nH]c2ccccc12)C(=O)N[C@@H](CCCNC(=N)N)C(=O)N[C@H](CS(=O)(=O)O)C(=O)N[C@@H]1C(=O)N(C)[C@@H](CCC(N)=O)C(=O)N[C@H](C(C)C)C(=O)N2CCC[C@H]2C(=O)N[C@H](CC(=O)O)C(=O)O[C@@H]1C (some centres not stated) [MICROSPINOSAMIDE]
EC50 [1]: 0.2 µg/mL (≈ 0.116 µM) | IC50 (CEM-SS): 3 µg/mL (≈ 1.74 µM)
